How the values were obtained:
renal hypertensive rat [1] = test: Blood pressure lowering effect on oral administration to rats at several doses; type: in vivo, male Sprague-Dawley rats
Description: (§1) To induce renal hypertension, left renal artery of 4 week-old male Sprague-Dawley rats(from The Korea Research Institute of Chemical Technology) was ligated. The rats were anesthetized with ether and the surgical region on the left abdomen of the rat was shaved, disinfected, and then incised about 1 cm vertically. The renal artery near abdominal aorta was isolated carefully from surrounding tissues and veins, and then ligated completely with a suture(4/0 sterile surgical silk). The muscular strata and skin of the surgical area were sutured with a suture(4/0 sterile surgical silk). The surgical region was disinfected to prevent infection and thereafter, 200 to 250 mg/Kg/day of cephazolin sodium was injected intramuscularly for 2 days. 6 to 8 days after the ligation, rats showing systolic pressure of more than 180 mmHg were selected for renal hypertension test. The blood pressure was determined by a tail-cuff method from the tail under unanesthetized condition(Gerold, M. et al., Arzneimittrel-Forsch, 18, 1285(1968)).
(§2) Each of the compounds to be tested was administered intravenously or orally into the renal hypertensive rat. The blood pressure of the rats was determined by direct method(Chiu, A. T. et al., J. Pharmacol. Exp. Ther. 250, 867(1989)) using a catheter. The rats were anesthetized with ketamine hydrochloride(125 mg/kg, i.p.) and a catheter was filled with saline and inserted into a carotid artery and carotid vein. The surgical area was sutured with a metal clip. The rats were relaxed at least 3 hours and the catheter in the carotid artery was adapted to an isotec pressure transducer to determine their blood pressure and heart rate with a physiograph(Linearcorder WR3310). After the blood pressure was stabilized, the test compound was administered intravenously or orally. For intravenous administration, the administered volume and washing volume were 1.0 ml/Kg and 0.2 ml, respectively. The blood pressure and heart rate were measured in regular intervals up to 24 hours after the administration of the test compound and compared with those measured after the administration of the control compound Losartan.
(§3) The test compound was dissolved in 0.05N KOH for intravenous administration and suspended in Tween 80 for oral administration.
(iii) Blood pressure lowering effect The present compounds, Losartan(Dup 753) and the Merck compound were administrated orally to rats in 10, 3, 1, 0.3 and 0.1 mg/kg under the same condition as in (ii) and the blood pressure lowering effect was determined.

unanesthetized dogs = test: Blood pressure lowering effect in unanesthetized dogs (furosemide treated); type: in vivo, dog; set-up: Maximum blood pressure lowering effect in a dog: unit not given here; settings: oral; for Blood pressure variation with time: dogs, 1.0 mg
Method: A number of dogs were fed freely in a feeding room and those weighing 7 to 12 kg in good health were selected regardless of their gender.
(§4) The test dogs were anesthetized with 30 mg/kg of pentobarbital sodium by intravenous injection and the left femoral artery and femoral vein were separated carefully. Silicone catheter, specially prepared and filled with saline treated with heparin(1,000 IU/ml), was cannulated into the blood vessels. After the surgery, the dogs were constrained to measure their blood pressure continuously with Gould 2000 physiograph adapted to a Grass P23 XL pressure transducer; and their heart rates were monitored with ECG/Biotacho amplifier. The dogs were tested at least 2 days after the surgery.
(§5) 10 mg/kg of furosemide was injected intramuscularly 18 hours(in case of intravenous injection, 2 hours) before the beginning of the test (administration of the test compound) to improve the activity of renin in blood plasma. After the injection of furosemide, neither food nor water was provided. The test compound was suspended in Tween 80 and administered in an amount of 20 mg/kg orally. The blood pressure and heart rate were measured up to 8 hours after the administration of each test compound.
The maximum blood pressure lowering effect of the present compounds and the control compounds were determined in different amounts of administration using the same method as […]

[2] = Metabolite analysis (enzyme digestion test); type: in vitro ADME, male rats; settings: rat liver microsome and NADPH, 1 hour, 37° C., HPLC
Method: Enzyme digestion test was executed in order to detect the metabolite of the test compound in vivo.
A liver microsome and NADPH system of male rats were added to each of the present compound(Example 8) and the control compound(Merck), and the mixture was incubated for 1 hour at 37° C. The resultant was extracted with methanol or dichloromethane, and, thereafter, the organic layer was evaporated to obtain a residue. The residue was analyzed using high pressure liquid chromatography.

[3] = system: furosemide-administered dogs; test: Duration of action in furosemide-administered dogs; type: in vivo, dog; settings: 0.33 mg, per os
Method: as §4
as §5, with “The test compound was suspended in Tween 80 and administered in an amount of 20 mg/kg orally.” left out
The compound of Example 8 and the Merck compound were administered orally to the furosemide-administrated dogs as in test 3(i), and blood pressure lowering effect was measured with time.

renal hypertensive rats = test: Duration of action in renal hypertensive rats; type: in vivo, male Sprague-Dawley rats; settings: oral
Description: as §1, §2
The present(Example 28) and control(Merck) compounds were tested using the hypertensive rats of test 2(i). 1 mg or 3 mg/kg of each compound was administered orally and blood pressure lowering effect with time was determined to measure the duration of action of the compounds.

angiotensin II receptor = test: Angiotensin II Receptor Binding Assay ([3H] angiotensin II binding inhibition); settings: [3H] angiotensin II ligand; 60 minutes, 25° C.; test concentration not given
Method: In accordance with the procedure disclosed in Chiu, A. T. et al., Eur. J. Pharm., 157, 13(1981), a ligand marked with a radioisotope was reacted with an angiotensin II receptor and the reactant was filtered with a glass fiber to remove unreacted ligand. After washing the filter, the amount of the remaining isotope was measured to determine the binding activity of the ligand, as described below in detail.
Sprague-Dawley rats and Wistar rats of 250 to 350 g(from The Korea Research Institute of Chemical Technology) were tested and the test procedures were carried out at 4° C., unless otherwise specified. Adrenal gland was separated from the Sprague-Dawley rats(liver, in the case of Wistar rats) into cortex and medulla. The separated adrenal cortex and medulla were washed with a sucrose buffer solution (0.2M sucrose, 1 mM EDTA, 10 mM Tris, pH 7.2) and homogenized in the same buffer solution by using a Teflon pestle and a Brinkmann homogenizer. The homogenates were centrifuged at 3,000 Xg for 10 minutes to remove precipitates and further centrifuged at 12,000 Xg for 13 minutes. The final supernatants were centrifuged at 102,000 Xg for 1 hour to obtain precipitates, which were washed with a Tris buffer solution(50 mM Tris, 5 mM MgCl2, pH 7.2) and re-centrifuged at 102,000 Xg for 1 hour. The resulting precipitates were immediately processed at the following step or stored at -70° C.
The precipitates were suspended in a Tris buffer solution. The amount of protein was determined by using a Bio-Rad DC protein analyzing kit and the protein concentration was adjusted to the amounts of: 0.2 to 0.3 mg/ml(Sprague-Dawley rat: adrenal cortex), 1.5 to 2.0 mg/ml(Sprague-Dawleyrat: adrenal medulla), and 1.5 to 2.0 mg/ml(Wistar rat: liver). To the suspension, bovine serum albumin(BSA) was added to a concentration of 0.25 wt % and the resultant was immediately processed at the following step or stored at -70° C.
(ii) Measurement of angiotensin II receptor binding capacity 50 μl(based on ligand) of [^3 H] angiotensin II(NEN, NET-446) and 10 μl of each of the test compounds with various concentrations were added to the buffer solution(50 mM Irris(pH 7.2), 5 mM MgCl2, 0.25% BSA) to adjust the final volume to be 0.5 ml. 100 μl of the receptor suspension was added thereto and the resulting solution was reacted for 60 minutes while stirring in a water bath at 25° C. 3 ml of cold buffer solution for analysis was added to cease the reaction. The isotope which was bound to the receptor was isolated from the resultant by using Brandel Cell Harvester System with Whatman glass fiber GF/C. After washing the filter, the radioactivity of the filter was determined by using a liquid scintillation counter. Binding inhibition(%) of the test compound was calculated as follows:
Binding Inhibition(%)=[{(T--B)-(S--B)}/(T--B)]×100
wherein T is cpm of the reaction product untreated with the test compound, S is cpm of the reaction product treated with the test compound, and B is cpm of blank test.

renal hypertensive rat [4] = test: Blood pressure lowering effect in renal hypertension (renal hypertensive rats, intravenous or oral); type: in vivo, male Sprague-Dawley rats; settings: 1 mg, read-out: Maxium Blood Pressure Lowering Effect(%)
Description: as §1, §2, §3

With `CCc1nc2c(C)cc(C)nc2n1Cc1ccc(-c2ccccc2-c2nnn[nH]2)cc1` [Merck compound, reference compound] the “blood pressure lowering effect” value (renal hypertensive rat [1]; 3 mg/kg) was 40%, the “Maximum blood pressure lowering effect in a dog” value (unanesthetized dogs; 0.1 mg/kg) was 20 and the “Maximum blood pressure lowering effect in a dog” value (unanesthetized dogs; 0.3 mg/kg) was 24. For the same compound, the “metabolite from the enzymatic digestion” value [2] was “has a metabolite”, the “blood pressure lowering effect with time” value ([3]; 0 min) was 0.0% and the “blood pressure lowering effect with time” value ([3]; 10 min) was -5.0%. The “blood pressure lowering effect with time” value ([3]; 20 min) was -12.2%, the “blood pressure lowering effect with time” value ([3]; 30 min) was -14.4% and the “blood pressure lowering effect with time” value ([3]; 60 min) was -20.1%. The “blood pressure lowering effect with time” value ([3]; 90 min) was -24.4%, the “blood pressure lowering effect with time” value ([3]; 120 min) was -19.1% and the “blood pressure lowering effect with time” value ([3]; 150 min) was -24.2%. The “blood pressure lowering effect with time” value ([3]; 180 min) was -18.9%, the “blood pressure lowering effect with time” value ([3]; 210 min) was -17.0% and the “blood pressure lowering effect with time” value ([3]; 240 min) was -17.0%. The “blood pressure lowering effect with time” value ([3]; 270 min) was -13.4%, the “blood pressure lowering effect with time” value ([3]; 300 min) was -14.9% and the “blood pressure lowering effect with time” value ([3]; 330 min) was -15.6%. For the same compound, the “blood pressure lowering effect with time” value ([3]; 360 min) was -15.6%, the “blood pressure lowering effect with time” value ([3]; 390 min) was -11.4% and the “blood pressure lowering effect with time” value ([3]; 420 min) was -10.7%. For the same compound, the “blood pressure lowering effect with time” value ([3]; 450 min) was -11.4%, the “blood pressure lowering effect with time” value ([3]; 480 min) was -13.8% and the “blood pressure lowering effect with time” value (renal hypertensive rats; 3 mg/kg, 0 min) was 0%. The “blood pressure lowering effect with time” value (renal hypertensive rats; 3 mg/kg, 10 min) was -15%, the “blood pressure lowering effect with time” value (renal hypertensive rats; 3 mg/kg, 20 min) was -27% and the “blood pressure lowering effect with time” value (renal hypertensive rats; 3 mg/kg, 30 min) was -28%. For the same compound, the “blood pressure lowering effect with time” value (renal hypertensive rats; 3 mg/kg, 60 min) was -26%, the “blood pressure lowering effect with time” value (renal hypertensive rats; 3 mg/kg, 90 min) was -28% and the “blood pressure lowering effect with time” value (renal hypertensive rats; 3 mg/kg, 120 min) was -25%. For the same compound, the “blood pressure lowering effect with time” value (renal hypertensive rats; 3 mg/kg, 240 min) was -40%, the “blood pressure lowering effect with time” value (renal hypertensive rats; 3 mg/kg, 360 min) was -36% and the “blood pressure lowering effect with time” value (renal hypertensive rats; 3 mg/kg, 1320 min) was -35%. The “blood pressure lowering effect with time” value (renal hypertensive rats; 3 mg/kg, 1440 min) was -40% and the blood pressure lowered (renal hypertensive rats; 3 mg/kg, time in minutes not given) was -40%.

In the case of `CCCCc1nc2c(C)c(-c3ccccc3)c(C(OC)OC)nc2n1Cc1ccc(-c2ccccc2-c2nnn[nH]2)cc1` [Example 28, 2-butyl-5-dimethoxymethyl-6-phenyl-7-methyl-3-[2'-(1H-tetrazol-5-yl)-biphenyl-4-ylmethyl]-3H-imidazo[4,5-b]pyridine], the “blood pressure lowering effect” value (renal hypertensive rat [1]; 0.3 mg/kg) is reported as 13%, the “blood pressure lowering effect” value (renal hypertensive rat [1]; 1 mg/kg) is reported as 47% and the “blood pressure lowering effect compared with the Merck compound” value (renal hypertensive rat [1]; Table 2) is reported as “far superior effect”. The “Maximum blood pressure lowering effect in a dog” value (unanesthetized dogs; 0.1 mg/kg) was 9, the “Maximum blood pressure lowering effect in a dog” value (unanesthetized dogs; 0.3 mg/kg) was 18 and the “Maximum blood pressure lowering effect in a dog” value (unanesthetized dogs; 1 mg/kg) was 33. For the same compound, the “Blood pressure variation with time” value (unanesthetized dogs; 0.5 hr) was -3.3%, the “Blood pressure variation with time” value (unanesthetized dogs; 1 hr) was -18.9% and the “Blood pressure variation with time” value (unanesthetized dogs; 2 hr) was -27.7%. The “Blood pressure variation with time” value (unanesthetized dogs; 4 hr) was -33.3%, the “Blood pressure variation with time” value (unanesthetized dogs; 6 hr) was -29.5% and the “Blood pressure variation with time” value (unanesthetized dogs; 8 hr) was -27.1%. For the same compound, the “Binding Inhibition(%)” value (angiotensin II receptor) was 50.5%, the “duration of action compared with the Merck compound” value (renal hypertensive rats; 1 mg/kg versus Merck compound 3 mg/kg) was “far longer duration of action” and the “blood pressure lowering effect with time” value (renal hypertensive rats; 1 mg/kg, 0 min) was 0%. For the same compound, the “blood pressure lowering effect with time” value (renal hypertensive rats; 1 mg/kg, 10 min) was -16%, the “blood pressure lowering effect with time” value (renal hypertensive rats; 1 mg/kg, 20 min) was -17% and the “blood pressure lowering effect with time” value (renal hypertensive rats; 1 mg/kg, 30 min) was -18%. For the same compound, the “blood pressure lowering effect with time” value (renal hypertensive rats; 1 mg/kg, 60 min) was -21%, the “blood pressure lowering effect with time” value (renal hypertensive rats; 1 mg/kg, 90 min) was -34% and the “blood pressure lowering effect with time” value (renal hypertensive rats; 1 mg/kg, 120 min) was -33%. The “blood pressure lowering effect with time” value (renal hypertensive rats; 1 mg/kg, 240 min) was -46%, the “blood pressure lowering effect with time” value (renal hypertensive rats; 1 mg/kg, 360 min) was -47% and the “blood pressure lowering effect with time” value (renal hypertensive rats; 1 mg/kg, 1320 min) was -25%. For the same compound, the “blood pressure lowering effect with time” value (renal hypertensive rats; 1 mg/kg, 1440 min) was -28% and the change in vivo at 1 mg (renal hypertensive rat [4]) was -47%.

Reference: US5849753A, “Pyridyl imidazole derivatives and processes for the preparation thereof” (Korea Research Institute of Chemical Technology, priority 1994, dated 1998)
